Patent publication US20260083742A1, “HOMOLOGOUS RECOMBINATION REPAIR DEFICIENCY (HRD) AS A PREDICTIVE BIOMARKER FOR TREATING CANCER WITH WEE1 INHIBITORS” (Zeno Management, Inc., priority 2023, published 2026)

Tests used:
[1] = tested on: uterine serous carcinoma (USC) or high-grade serous ovarian cancer (HGSOC); test: Azenosertib in subjects with USC or HGSOC grouped by HRRm status: tumor response and progression free survival; assay type: in vivo, human; details: for tumor size change, median: USC population, azenosertib 300 mg or more; for progression free survival: subjects treated with 300+mg azenosertib
Description: Subjects with uterine serous carcinoma (USC) or high-grade serous ovarian cancer (HGSOC) were treated with azenosertib and grouped by azenosertib dose of lower than 300 mg (LT300) or at or greater than 300 mg azenosertib (300+mg). […] Total subjects in parenthesis includes all subjects in the study including subjects receiving LT300.
Subjects selected in Table 1 were evaluated for tumor response when treated with doses of 300 mg or more of azenosertib or with lower than 300 mg of azenosertib. In the USC population treated with azenosertib of 300 mg or more (300+), HRRm positivity was associated with better tumor response (p=0.01). (FIG. 1B and FIG. 1C). The HRRm median was −33% and HRR wt median was −5%. […] HRRm subject population was associated with 8.3 months of progression free survival, compared to HRR wt subject population with 4.2 months progression free survival. (FIG. 1D). HRRm status was associated with better progression free survival in subjects treated with at least 300 mg azenosertib, supporting an effective dose of 300 mg or more in HRD subjects.

[2] = Body weight loss and clinical observations in ovarian PDX study; assay type: in vivo
Description: Relative Body Weight (RBW), individual body weight and mean body weight loss percent were calculated for each measurement by dividing the body weight by the body weight at the start of treatment as described in Example 3.

[3] = tested on: parental MDA-MB-436 TNBC cell line; test: In vitro activity (IC50) in parental MDA-MB-436; assay type: cell-based; details: Homo sapiens; parental MDA-MB-436; read-out: In vitro activity (IC50) Wild Type
Description: (§1) Cells with BRCA reversion mutations may be considered HRD+due to genome instability (such as TAI, LST, LOH). BRCA reversion mutation is an established mechanism of resistance to both platinum-based chemotherapeutic drugs and PARP inhibitors. In vivo exploration of WEE1 inhibitors (azenosertib, adavosertib) and PARP inhibitors (niraparib, olaparib) was evaluated.
(§2) MDA-MB-436 PARP inhibitor-resistant lines were generated by long-term in vitro treatment with a PARP inhibitor that is olaparib (Ola^R) or niraparib (Nir^R).

[4] = tested on: HCC1937 PARP inhibitor-resistant TNBC xenograft; test: HCC1937 TNBC xenograft tumor growth inhibition; assay type: in vivo, mice
Description: Anti-tumor activity of azenosertib monotherapy or in combination with olaparib was evaluated in the HCC1937 model in vivo in mice (FIG. 9), and Table 11 summarizes the groups and treatments. […] Treatment with monotherapy olaparib at 100 mg/kg QD confirmed HCC1937 resistance to the PARP inhibitor.

[5] = tested on: MDA-MB-436 Ola^R (BRCA reversion) TNBC cell line; test: In vitro activity (IC50) in olaparib-resistant MDA-MB-436; assay type: cell-based; details: Homo sapiens; MDA-MB-436 Ola^R; read-out: In vitro activity (IC50) Olaparib^R (BRCA reversion)
Description: as §1, §2

[6] = tested on: MDA-MB-436 niraparib-resistant model; test: MDA-MB-436 niraparib-resistant CDX model in vivo; details: azenosertib 80 mg/kg
Excerpt: MDA-MB-436 PARP inhibitor-resistant lines were generated by long-term in vitro treatment with a PARP inhibitor that is olaparib (Ola^R) or niraparib (Nir^R). Resistant cells were confirmed by sequencing to have BRCA1 reversion mutation. The parental MDA-MB-436 cell line remains sensitive to PARP inhibitors as expected (FIG. 5A), while the Nir^R (FIG. 5B) and Ola^R (FIG. 5C) MDA-MB-436 cell lines are no longer sensitive to PARP inhibitors but are sensitive to azenosertib. Azenosertib activity was further confirmed in the PARP inhibitor-resistant MDA-MB-436 CDX model in vivo. […] WEE1 inhibitor or PARP inhibitor treatment in the Parental TNBC animal model (without PARP inhibitor resistance) is shown in FIG. 5D.

[7] = tested on: HGSOC with HRD+ status (BRCA1m); test: Human subject with HRD+ platinum-resistant, PARP inhibitor-resistant ovarian cancer treated with azenosertib; assay type: in vivo; details: one subject
Description: A subject with HGSOC selected to have HRD+ status (e.g., BRCA1m) confirmed by qualitative next-generation sequencing based in vitro diagnostic test (FoundationOne®CDx) was administered azenosertib in accordance with an intermittent dosing schedule of at least 400 mg azenosertib once a day for five consecutive days, followed by two off days. The subject received azenosertib for five months. The subject is a person who received 7 prior lines of therapy: (1) carboplatin/paclitaxel/bevacizumab/olaparib (PD); (2) Pembrolizumab (PD); (3) NaPi2b targeting-ADC (XMT-1536) (PD); (4) carboplatin/gemcitabine/bevacizumab (PD); (5) Pegylated doxorubicin (PD); (6) Topotecan (PD); (7) PABP-1 RNP (ATRC-101) (PD).

[8] = tested on: MDA-MB-436 Nir^R (BRCA reversion) TNBC cell line; test: In vitro activity (IC50) in niraparib-resistant MDA-MB-436; assay type: cell-based; details: Homo sapiens
Description: as §1, §2

[9] = tested on: 22RV1 (prostate cancer cell line) subcutaneous xenografts; test: 22RV1 subcutaneous xenograft tumor growth inhibition; assay type: in vivo, CB17 SCID mice
Description: The prostate cancer cell line 22RV1 harbors a BRCA2 pathogenic mutation (HRD+). Briefly, 72 tumor-bearing mice were randomized and assigned into nine groups using a randomized block design based on their tumor volumes with eight mice per group. Each mouse was inoculated subcutaneously at the right flank with 22RV1 tumor cells in 0.2 mL mixture of Matrigel (5×10^6 cells/mouse). Treatments were started when the tumor size reached 199.94 mm^3 for tumor efficacy studies (Day 14 post inoculation). [table] Tumor size was measured twice weekly in two dimensions using caliper and expressed in mm3 using the formula: where a and b were long and short diameters of the tumor. The tumor size was used for calculations of T/C %. The T/C(%) was calculated according to the following formula: Two-way ANOVA followed by Bonferroni post-test was performed to compare tumor volumes among vehicle and other groups.

[10] = tested on: HBCx-9, HBCx-10 and HBCx-17 triple-negative breast cancer (TNBC) PDX models; test: Anti-tumor efficacy in TNBC patient-derived xenograft models; assay type: in vivo, mice; details: HBCx-10 and HBCx-17 (HRD+) vs HBCx-9 (HRD-); azenosertib 60 mg/kg, niraparib 35 mg/kg
Excerpt: Treatments were initiated 28 days post implantation of the tumor cells. The study period ended 28 days after the start of treatment. [table]

[11] = azenosertib 60 mg/kg and/or niraparib 35 mg/kg p.o., (5 days on, 2 days off) × 4
[12] = azenosertib 60 mg/kg p.o. qd × 5 3 cycle
[13] = azenosertib 80 mg/kg p.o. qd × 5 3 cycle

For `C=CCn1c(=O)c2cnc(Nc3ccc(N4CCN(C)CC4)cc3)nc2n1-c1ccc2c(n1)[C@@](O)(CC)CC2` [Azenosertib, azenosertib], the “tumor size change, median” value ([1]; HRR wt) was −5%, the “tumor size change, median” value ([1]; HRRm) was −33% and the progression free survival ([1]; HRR wt) was 4.2 months. The progression free survival ([1]; HRRm) was 8.3 months, the “Max. individual BWL” value [2, 11] was 7.6% and the “Max. mean BWL” value [2, 11] was 0.7%. For the same molecule, the “tolerability (body weight data and clinical observations)” value ([2]; azenosertib at 60 mg/kg, niraparib at 35 mg/kg, single agents or in combination) was “well tolerated”, the IC50 [3] was 282 nM and the tumor growth inhibition ([4]; monotherapy azenosertib 60 mg/kg QD 5:2) was 80%. For the same molecule, the tumor growth inhibition ([4]; monotherapy azenosertib 80 mg/kg QD 5:2) was 89%, the IC50 [5] was 174 nM and the “tumor volume compared to the PARP inhibitor” value [6] was “significant reduction in tumor volume”. For the same molecule, the “target lesion on scan” value ([7]; after treatment with azenosertib) was “no longer visualized”, the “cPR (confirmed partial response)” value ([7]; at least 400 mg azenosertib once a day, five days on, two off, five months, 7 prior lines) was −48% and the IC50 [8] was 185 nM. For the same molecule, the “% TGI Day 5” value [9, 12] was 54.08%, the “% TGI Day 8” value [9, 12] was 32.68% and the “% TGI Day 12” value [9, 12] was 44.02%. The “% TGI Day 15” value [9, 12] was 26.61%, the “% TGI Day 19” value [9, 12] was 14.55% and the “% TGI Day 5” value [9, 13] was 38.26%. For the same molecule, the “% TGI Day 8” value [9, 13] was 23.80%, the “% TGI Day 12” value [9, 13] was 26.16% and the “% TGI Day 15” value [9, 13] was 19.47%. The “% TGI Day 19” value [9, 13] was 38.13% and the “tumor growth inhibition in HRD+ models compared to the HRD- model” value [10] was “increased tumor growth inhibition”.
